Each structure is given as a SMILES string. Where only a bound is given, the exact number is not on record here.

A word on the IC50: it is the concentration at which inhibition is half-maximal.

One data set has as its system TNF-α. In words: TNF-α secretion (h) (PBMC). The data set is classed as cell-based, human. The conditions noted are these: Homo sapiens, 24 h, read-out: TNF-α secretion IC50.
Data set [1] has as its system splenic lymphocytes isolated from C57BL/6 mice and CBA mice. In words: Immunosuppression ([3H]TMD incorporation in mouse splenic lymphocytes). Conditions: Mus musculus, Splenic lymphocyte; read-out: Immunosuppresion IC50. The class given is cell-based.
The nature of data set [2]: Control solution without enzyme (pH 7.4 buffer, 37° C.). The data set is classed as physicochemical. The conditions noted are these: 25 to 50 hours, LCMS.
The next data set deals with cytokine release. Description: Panel of standard cell-based in vitro assays evaluating cytokine release inhibition. The conditions noted are these: prodrugs compared to the steroid drugs (Examples 27 and 62, respectively). As for the experimental part:
The selected compounds of the invention were tested in a panel of standard, cell-based in vitro assays evaluating the cytokine release inhibition and thus the anti-inflammatory activity of a test article. Several potent steroid analogs were identified, namely compounds described in Examples 23, 27, 43, 59 and 62. […] Therefore by masking the pharmacological properties of a respective steroid the mutual prodrug mitigates the oropharyngeal side effects and confines the antiinflammatory activity of a steroid to the endobronchial space, where the lung enzymes (specifically alkaline phosphatase) release the pharmacologically active steroid (see Examples 141-143).

A further data set concerns alkaline phosphatase. In words: Conversion of mutual prodrugs after exposure to alkaline phosphatase (ALP experiment).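 On all read-outs here: mutual prodrug and its released products quantified by LCMS over time in buffer with alkaline phosphatase, compared against enzyme-free control buffer, incubations running 25–50 hours.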 Conditions: for course in the reaction solution (with enzyme): alkaline phosphatase ~600 ng/μl, pH 7.4, 37° C., LCMS; for Prodrug 16 Concentration: mutual prodrug 16 + alkaline phosphatase; for Prodrug 17 Concentration: mutual prodrug 17 + alkaline phosphatase.

Protocol for alkaline phosphatase: Reaction and control solutions were prepared by adding a 500 μL aliquot of a ˜200 ng/μl solution in 1:1 acetonitrile/water of and the compound 16 (or alternatively 17) to 500 μl of a pH 7.4 buffer solution, containing 5 mM tris(hydroxymethyl)aminomethane, 1 mM ZnCl2, 1 mM MgCl2. For the reaction solutions, the buffer also contained approximately 600 ng/μl of alkaline phosphatase (Sigma-Aldrich) whereas the control buffer solutions contained no enzyme. The reaction and control solutions were incubated at 37° C. for 25 to 50 hours. The solutions were analyzed periodically for the respective mutual prodrug and reaction products by LCMS.
The concentration of the alkaline phosphatase in the reaction buffer was ˜600 ng/μL (the enzyme activity of the solution was not determined).
The concentration of the alkaline phosphatase in the buffer added to the stock solution was ˜600 ng/μl (the enzyme activity of the solution was not determined).

On to `C[C@]12C=CC(=O)C=C1CC[C@H]1[C@@H]3C[C@H]4O[C@@H](C5CCCCC5)O[C@@]4(C(=O)CN4CC[N+](C)(Cc5ccc(C(O)CNCCCCCCOCCCCc6ccccc6)cc5OP(=O)(O)O)CC4)[C@@]3(C)C[C@H](O)[C@@]12F` (stereo partly drawn) [Example 107, Salmeterol-phosphate-16,17-[(Cyclohexylmethylene)bis(oxy)]-9-fluoro-11-hydroxy-21-(4-methylpiperazinium)-pregna-1,4-diene-3,20-dione[11β,16α(R)]], for which the IC50 stood at 810 nM with TNF-α and 80 nM in data set [1]. In data set [2], the “compounds detected in the control solution (without enzyme)” value is “Only the mutual prodrug 16 was detected”. Further, in the data set with cytokine release, the “anti-inflammatory activity (cytokine release inhibition), assessment in words” value was “less active or inactive”. Further, the “course in the reaction solution (with enzyme)” value in the data set with alkaline phosphatase was “disappearance of the mutual prodrug 16”. The “Prodrug 16 Concentration” value came to 91.0 nmol/mL in the data set with alkaline phosphatase (0.00 Hours @ 37° C.); 87.7 nmol/mL in the data set with alkaline phosphatase (0.59 Hours @ 37° C.); 78.6 nmol/mL in the data set with alkaline phosphatase (1.19 Hours @ 37° C.); 67.8 nmol/mL with alkaline phosphatase (2.96 Hours @ 37° C.); 62.3 nmol/mL in the data set with alkaline phosphatase (3.56 Hours @ 37° C.); 61.6 nmol/mL in the data set on alkaline phosphatase (4.15 Hours @ 37° C.). For the same molecule, the “Prodrug 16 Concentration” value in the data set with alkaline phosphatase (10.67 Hours @ 37° C.) stood at 43.1 nmol/mL; with alkaline phosphatase (15.41 Hours @ 37° C.), 36.7 nmol/mL; in the data set with alkaline phosphatase (19.56 Hours @ 37° C.), 33.1 nmol/mL; in the data set on alkaline phosphatase (24.30 Hours @ 37° C.), 29.3 nmol/mL; in the data set with alkaline phosphatase (30.82 Hours @ 37° C.), 24.8 nmol/mL; in the data set on alkaline phosphatase (34.97 Hours @ 37° C.) it was 23.0 nmol/mL.
Regarding `C[C@]12C=CC(=O)C=C1CCC1C3C[C@H]4OC(c5ccc[n+](Cc6ccc(C(O)CNCCCCCCOCCCCc7ccccc7)cc6OP(=O)(O)O)c5)O[C@@]4(C(=O)CO)[C@@]3(C)C[C@H](O)[C@@]12F` (stereo partly drawn) [Example 133], the IC50 is over 1000 nM with TNF-α and 180 nM in data set [1]. For the same molecule, the “compounds detected in the control solution (without enzyme)” value in data set [2] was “Only the mutual prodrug 17 was detected”. The “anti-inflammatory activity (cytokine release inhibition), assessment in words” value with cytokine release was “less active or inactive”. In the data set on alkaline phosphatase, the “course in the reaction solution (with enzyme)” value was “disappearance of the mutual prodrug”. For the same molecule, the “Prodrug 17 Concentration” value with alkaline phosphatase (0.00 Hours @ 37° C.) worked out at 214.4 nmol/mL; in the data set with alkaline phosphatase (0.53 Hours @ 37° C.), 112.6 nmol/mL; in the data set on alkaline phosphatase (1.05 Hours @ 37° C.), 44.9 nmol/mL; in the data set with alkaline phosphatase (2.10 Hours @ 37° C.), 9.8 nmol/mL; in the data set on alkaline phosphatase (3.16 Hours @ 37° C.), 4.2 nmol/mL; with alkaline phosphatase (4.21 Hours @ 37° C.), 3.7 nmol/mL. Moreover, the “Prodrug 17 Concentration” value in the data set on alkaline phosphatase (10.52 Hours @ 37° C.), in the data set on alkaline phosphatase (19.99 Hours @ 37° C.), in the data set with alkaline phosphatase (29.46 Hours @ 37° C.), in the data set on alkaline phosphatase (39.99 Hours @ 37° C.) and in the data set with alkaline phosphatase (49.46 Hours @ 37° C.) was 0.0 nmol/mL throughout.

Source of the values: US20100209508A1, “Substituted Phenylphosphates as Mutual Prodrugs of Steroids and ß-Agonists for the Treatment of Title Pulmonary Inflammation and Bronchoconstriction” (CORUS PHARMA, INC., priority 2005, published 2010).
